Reference: PubChem BioAssay AID330 (DTP/NCI, 2004)
Several values for one entry are separate records, joined by “and”; a condition that tells them apart may be missing. Identical values can stand only once. Inconclusive results and toxic doses are left out. Rule for the calls: active = survival T/C of 150% or more; inactive = T/C below 125% in these data.

Test system: P388 leukemia ip, CD2F1 mice, survival T/C
Assay: NCI In Vivo Anticancer Drug Screen. Data for tumor model P388 Leukemia (intraperitoneal) in CD2F1 (CDF1) mice
Conditions: endpoint: median survival time, higher = longer survival
In short: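 Mice carrying the transplanted tumor received test compound or vehicle. Survival was recorded in each group, and the value is the treated-group measurement divided by that of the vehicle-treated control group.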

[1] = dose: 12.5 mg/kg/injection, schedule: Q01DX005 (ip), vehicle: Klucel (hydroxypropylcellulose) (HPC)
[2] = dose: 60.0 mg/kg/injection, schedule: Q01DX005 (ip), vehicle: saline with Tween-80
[3] = dose: 120.0 mg/kg/injection, schedule: Q01DX005 (ip), vehicle: saline with Tween-80
[4] = dose: 240.0 mg/kg/injection, schedule: Q01DX005 (ip), vehicle: saline with Tween-80
[5] = dose: 50.0 mg/kg/injection, schedule: Q01DX005 (ip), vehicle: Klucel (hydroxypropylcellulose) (HPC)
[6] = dose: 100.0 mg/kg/injection, schedule: Q01DX005 (ip), vehicle: Klucel (hydroxypropylcellulose) (HPC)
[7] = dose: 200.0 mg/kg/injection, schedule: Q01DX005 (ip), vehicle: Klucel (hydroxypropylcellulose) (HPC)
[8] = dose: 6.25 mg/kg/injection, schedule: Q01DX005 (ip), vehicle: Klucel (hydroxypropylcellulose) (HPC)
[9] = dose: 25.0 mg/kg/injection, schedule: Q01DX005 (ip), vehicle: Klucel (hydroxypropylcellulose) (HPC)
[10] = dose: 50.0 mg/kg/injection, schedule: Q01DX005 (ip), vehicle: saline
[11] = dose: 100.0 mg/kg/injection, schedule: Q01DX005 (ip), vehicle: saline
[12] = dose: 200.0 mg/kg/injection, schedule: Q01DX005 (ip), vehicle: saline
[13] = dose: 50.0 mg/kg/injection, schedule: Q01DX001 (ip), vehicle: Klucel (hydroxypropylcellulose) (HPC)
[14] = dose: 100.0 mg/kg/injection, schedule: Q01DX001 (ip), vehicle: Klucel (hydroxypropylcellulose) (HPC)
[15] = dose: 200.0 mg/kg/injection, schedule: Q01DX001 (ip), vehicle: Klucel (hydroxypropylcellulose) (HPC)
[16] = dose: 60.0 mg/kg/injection, schedule: Q01DX005 (ip), vehicle: saline
[17] = dose: 50.0 mg/kg/injection, schedule: Q01DX005 (ip), vehicle: saline with Tween-80
[18] = dose: 100.0 mg/kg/injection, schedule: Q01DX005 (ip), vehicle: saline with Tween-80
[19] = dose: 200.0 mg/kg/injection, schedule: Q01DX005 (ip), vehicle: saline with Tween-80
[20] = dose: 25.0 mg/kg/injection, schedule: Q01DX009 (ip), vehicle: water

Measured: T/C

CC(C)=CCCC(C)C1=C(O)C(=O)C(C)=CC1=O (centres undefined)
inactive: [1] 108 % of control

CCOC(=O)c1c(C)csc1NC(=O)CSCC(=O)OC
inactive: [2] 99 % of control | [3] 100 % of control | [4] 94 % of control

O=C1c2ccccc2-c2ccc(NC(=O)C34CC5CC(CC(C5)C3)C4)cc21
inactive: [5] 86 % of control | [6] 87 % of control | [7] 90 % of control

C(=C\c1ccc2cc(C3=NCCN3)[nH]c2c1)/c1ccc(Oc2ccc(C3=NCCN3)cc2)cc1 (tested in a mixture with another compound)
inactive: [8] 111 % of control | [1] 97 % of control | [9] 100 % of control

CCC(=O)N(C)[C@@H]1Oc2ccc(O)cc2[C@]1(C)c1cc(O)ccc1O
inactive: dose: 60.0 mg/kg/injection, schedule: Q01DX005 (ip), vehicle: Klucel (hydroxypropylcellulose) (HPC) 98 % of control | dose: 120.0 mg/kg/injection, schedule: Q01DX005 (ip), vehicle: Klucel (hydroxypropylcellulose) (HPC) 97 % of control | dose: 240.0 mg/kg/injection, schedule: Q01DX005 (ip), vehicle: Klucel (hydroxypropylcellulose) (HPC) 99 % of control

CCNC(=O)/C=C(C)/C=C/C=C(C)/C=C/c1c(C)cc(OC)c(C)c1C
inactive: [9] 86 % of control | [5] 90 % of control | [6] 100 % of control and 101 % of control | [7] 108 % of control

CCOc1ccc2c(N=[N+]=[N-])cc(C)nc2c1
inactive: dose: 30.0 mg/kg/injection, schedule: Q01DX005 (ip), vehicle: saline with Tween-80 94 % of control | [2] 103 % of control and 91 % of control | [3] 92 % of control

CC(O)C(NC(=O)OC(C)(C)C)C(=O)O (centres undefined)
inactive: [10] 103 % of control | [11] 104 % of control | [12] 102 % of control

O=C1c2ccccc2C(=O)N1CCC[P+](c1ccccc1)(c1ccccc1)c1ccccc1
inactive: dose: 1.56 mg/kg/injection, schedule: Q01DX009 (ip), vehicle: saline 122 % of control

Fc1ccccc1C=NC12CC3CC(CC(C3)C1)C2
inactive: dose: 50.0 mg/kg/injection, schedule: Q01DX009 (ip), vehicle: saline with Tween-80 100 % of control | dose: 100.0 mg/kg/injection, schedule: Q01DX009 (ip), vehicle: saline with Tween-80 102 % of control | dose: 200.0 mg/kg/injection, schedule: Q01DX009 (ip), vehicle: saline with Tween-80 108 % of control

Cc1cccc2c(=O)[nH]c(=O)[nH]c12
inactive: [5] 93 % of control | [6] 89 % of control | [7] 89 % of control

CCCCCCCCCCCCCCCC[N+](C)(C)CCSC(C)=O
inactive: dose: 0.78 mg/kg/injection, schedule: Q01DX009 (ip), vehicle: acetone 100 % of control | dose: 1.56 mg/kg/injection, schedule: Q01DX009 (ip), vehicle: acetone 104 % of control | dose: 3.12 mg/kg/injection, schedule: Q01DX009 (ip), vehicle: acetone 104 % of control | dose: 6.25 mg/kg/injection, schedule: Q01DX009 (ip), vehicle: acetone 107 % of control

CC1CC12C(=O)C1=C(C(=O)C2O)C2(C)CCCC(C)(COC=O)C2C(O)C1OC=O (centres undefined)
inactive: [8] 105 % of control | [1] 105 % of control | [9] 115 % of control | [5] 101 % of control

O=C(CCl)NNc1cccc(Cl)n1
inactive: [13] 98 % of control | [14] 98 % of control | [15] 93 % of control

NC(N)=N/N=C\c1ccnc2ccccc12
inactive: dose: 7.5 mg/kg/injection, schedule: Q01DX005 (ip), vehicle: saline 100 % of control | dose: 15.0 mg/kg/injection, schedule: Q01DX005 (ip), vehicle: saline 105 % of control | dose: 30.0 mg/kg/injection, schedule: Q01DX005 (ip), vehicle: saline 105 % of control | [16] 105 % of control

CC(=O)O[C@@H]1C[C@@H]2[C@@]3(C)CC[C@@H](OC(=O)CC(=O)O)C(C)(C)[C@@H]3CC[C@@]2(C)[C@]2(C)CCCC([C@]3(C)CC[C@H](C(C)(C)O)O3)[C@@H]12 (some centres undefined)
inactive: [9] 92 % of control | [5] 99 % of control | [6] 92 % of control and 97 % of control | [7] 86 % of control and 98 % of control | dose: 400.0 mg/kg/injection, schedule: Q01DX005 (ip), vehicle: Klucel (hydroxypropylcellulose) (HPC) 91 % of control

CCCCN(CCCC)CC(O)c1ccc(OCc2ccccc2)c2ccccc12 (centres undefined)
inactive: [17] 102 % of control | [18] 102 % of control | [19] 102 % of control

O=N[O-].O=N[O-].[NH2-].[NH2-].[NH2-].[NH2-].[Ni]
inactive: dose: 6.25 mg/kg/injection, schedule: Q01DX009 (ip), vehicle: saline 100 % of control | dose: 12.5 mg/kg/injection, schedule: Q01DX009 (ip), vehicle: saline 105 % of control

O=c1oc2ccc(Cl)cc2c(=O)n1-c1cc(Cl)ccc1[N+](=O)[O-]
inactive: [10] 100 % of control | [11] 99 % of control | [12] 104 % of control

O=C(O)Cc1c(-c2ccccc2)nc(=S)[nH]c1-c1[nH]c(=S)nc(-c2ccccc2)c1CC(=O)O
inactive: [16] 111 % of control | dose: 120.0 mg/kg/injection, schedule: Q01DX005 (ip), vehicle: saline 106 % of control | dose: 240.0 mg/kg/injection, schedule: Q01DX005 (ip), vehicle: saline 96 % of control

O=c1c2ccc(Cl)cc2nc2n1OCC2
inactive: [14] 106 % of control | [15] 100 % of control | dose: 400.0 mg/kg/injection, schedule: Q01DX001 (ip), vehicle: Klucel (hydroxypropylcellulose) (HPC) 101 % of control

O=C1NCC(Br)C(=O)N1 (centres undefined)
inactive: dose: 25.0 mg/kg/injection, schedule: Q01DX009 (ip), vehicle: other 113 % of control | dose: 25.0 mg/kg/injection, schedule: Q01DX009 (ip), vehicle: saline + Tween-80 + alcohol 112 % of control | dose: 50.0 mg/kg/injection, schedule: Q01DX009 (ip), vehicle: saline + Tween-80 + alcohol 121 % of control | dose: 100.0 mg/kg/injection, schedule: Q01DX009 (ip), vehicle: saline + Tween-80 + alcohol 122 % of control

O=C1C=CC(=NBr)C=C1
inactive: [2] 108 % of control | [3] 110 % of control | [4] 108 % of control

Cc1c([N+](=O)[O-])cc(Br)c2ccccc12
inactive: [20] 108 % of control | dose: 50.0 mg/kg/injection, schedule: Q01DX009 (ip), vehicle: water 94 % of control | dose: 100.0 mg/kg/injection, schedule: Q01DX009 (ip), vehicle: water 93 % of control

CC(C)(C)/[N+]([O-])=C/C=C\C=C\C=O
inactive: [13] 116 % of control | [14] 120 % of control | [15] 122 % of control

c1ccc(C2Oc3ccccc3-c3nc4ccccc4cc32)cc1 (centres undefined)
inactive: [17] 106 % of control | [18] 111 % of control | [19] 100 % of control

COc1ccc2nc(-n3[nH]c(C)c(-c4cc(C)[nH]n4)c3=O)cc(C)c2c1
inactive: [17] 91 % of control | [18] 91 % of control | [19] 90 % of control

O=NNc1cncc2ccccc12
inactive: dose: 1.56 mg/kg/injection, schedule: Q01DX009 (ip), vehicle: water 100 % of control | dose: 3.12 mg/kg/injection, schedule: Q01DX009 (ip), vehicle: water 94 % of control | dose: 6.0 mg/kg/injection, schedule: Q01DX008 (ip), vehicle: water 102 % of control | dose: 6.25 mg/kg/injection, schedule: Q01DX009 (ip), vehicle: water 94 % of control | dose: 12.5 mg/kg/injection, schedule: Q01DX008 (ip), vehicle: water 113 % of control | dose: 12.5 mg/kg/injection, schedule: Q01DX009 (ip), vehicle: water 104 % of control | dose: 25.0 mg/kg/injection, schedule: Q01DX008 (ip), vehicle: water 111 % of control | [20] 115 % of control | dose: 50.0 mg/kg/injection, schedule: Q01DX008 (ip), vehicle: water 116 % of control

C(CSC1=NCCN1)CSC1=NCCN1
inactive: dose: 25.0 mg/kg/injection, schedule: Q01DX009 (ip), vehicle: saline 120 % of control | dose: 50.0 mg/kg/injection, schedule: Q01DX009 (ip), vehicle: saline 117 % of control
